Data on 2 compounds can be found in patent US11564911B2, “Small molecule dual-inhibitors of TRPV4 and TRPA1 for sanitizing and anesthetizing” (Duke University, priority 2016, dated 2023).

Data set [1] has as its system WT mice, whisker-pad injection of 4% formalin. Description: Formalin-evoked trigeminal irritant pain, systemic (i.p.) compound, WT mice. The class given is in vivo, mouse. The following applies: 10 mg/kg i.p. The protocol:
FIGS. 31A-31D: 16-8 and 16-19 effectively attenuate formalin-evoked trigeminal irritant pain. (FIG. 31A) Time-course of nocifensive behavior in WT mice following whisker-pad injection of 4% formalin. The mice were pre-injected (i.p., 10 mg/kg; 15 min before formalin) with GSK205, 16-8 or 16-19. Note effective reduction of nocifensive behavior in the late “neural” phase by compounds 16-8, 16-19, not by GSK205. (FIG. 31B) Cumulative response binned into 3 phases: acute phase (0-5 min), interphase (5-15 min), and late “neural” phase (15-45 min). […] (FIG. 31C) As in (FIG. 31A), but also including Trpv4^−/− mice. Compounds were applied i.p. 15 min before formalin challenge, at 10 mg/kg except established TRPA1 blocker, A967079 (25 mg/kg). […]
Compounds were tested for their effect in reducing pain using an in vivo pain model in mice. […] After injection, mice were immediately placed back into the chamber and the rubbing behavior was recorded by a private consumer-type video-camera for a 45 min observation period. The recording time was divided into 9 blocks of 5 min, and a nociceptive score was determined per block by measuring the time that the animals spent rubbing the injected area predominantly with the ipsilateral fore-paw and rarely with hind-paw. […]

The nature of data set [2]: Compound concentration in tissues/organs and plasma by LC-MS/MS after i.p. injection. The note with it: 10 mg/kg i.p.; for compound concentration in liver and kidney / compound concentration in plasma / concentration at 1 h: 1 h; for concentration at 1 h: mouse, heart, brain, brainstem, trigeminal ganglion, skin, intraperitoneal. In kind it is in vivo, mouse. The protocol:
Mice were treated with 10 mg/kg i.p. of the respective inhibitor. Post-euthanasia harvested tissue was frozen in liquid nitrogen and stored at −80° C. for further analysis.
Frozen tissue samples were partially thawed and cut into 1 mm slices, 5-15 mg tissue, 2-fold excess water (mass/vol.), 6-fold excess acetonitrile (16- . . . compounds) or methanol (GSK205) containing appropriate amount of internal standard, and 2.5 mm zirconia/silica bead (Biospec Products Inc.) were added to 500-μL polypropyl-ene (PP) conical tube, homogenized in a Fast-Prep apparatus (Thermo-Savant) at speed “4” for 20 sec at room temp, and centrifuged at 13,600 g for 5 min at room temp. Depending on the expected concentration range of the measured compound, the supernatant was diluted 1/4-1/20 (in Mobile phase A, see below) and placed in autosampler for LC-MS/MS analysis.
The LC-MS/MS assay for 16- . . . compounds and GSK205 was developed on an Agilent 1200 series LC system interfaced with Applied Biosystems API 5500QTrap, a hybrid triple quadruple-linear trap MS/MS spectrometer.
Analyst (version 1.6.1) software was used for mass parameters tuning, data acquisition, and quantification. LC column: 3×4 mm RP C18 (Phenomenex, AJ0-4287) was operated at 35° C. Mobile phase A: 0.1% formic acid, 2% acetonitrile, in LC/MS-grade water; mobile phase B: acetonitrile; flow rate: 1 mL/min, 1:1 MS/MS:waste split. Run time was 4 min. Diverter valve was used to send flow to MS/MS only between 1.2 and 2.5 min. The elution gradi-ent was: 0-0.5 min, 1% B; 0.5-1.2 min, 1-95% B; 1.2-1.5 min, 95% B; 1.5-1.6 min, 95-1% B. Autosampler was oper-ated at 4° C.; injection volume was kept at 10-50 μL. Electrospray ionization (ESI) source parameters were: positive ionization mode, curtain gas flow=30, ionization potential=5500 V, temperature=500° C., nebulizing gas 1 flow=30, nebulizing gas 2=30, declustering potential=20 V. 16- . . . compounds and GSK205 were individually infused as 100 nM solutions in 50% A/50% B at 10 μL/min flow rate and parameters optimized to provide maximal ion count for “parent” and collision-produced (“daughter”) MS/MS ions. Parent/daughter quantifier [qualifier] ions utilized: GSK205 (401.1/280[370]), 16-8 (400.1/279.1[91.1], 16-16 (387.1/280[105]), 16-18 (415.2/280[370], 16-19 (414.1/279.2[91.1]. Standard (analyte of interest)/internal standard pairs utilized: GSK205/16-16, 16-8/16-16, 16-18/GSK205, 16-19/16-8.
Calibration samples (n=6) were prepared by adding pure standard of the measured compound to tissue homogenate (tissue+2-fold excess water, mass/vol) in the appropriate range needed for the particular dosing regime. Organs studied were analyzed alongside the study samples. The following are typical ranges used (the lower value representing also the LLOQ at 80% accuracy limit, all other calibrator levels at 85% accuracy limit): 0.38-6 nM (plasma), 6-100 nM (skin), 6-48 nM (heart), 7.5-120 nM (brain), 19-300 or 1500-24000 nM (liver), 56-900 or 1500-12000 nM (kidney), 500-8000 nM (fat). Peak integration, calibration, and quantification was performed within Analyst software. The response of the peak area standard/int. std. to nominal concentration was linear with r=0.999 or better.

The target in data set [3] is T1, TRPV2 (Mus musculus, UniProt Q9WTR1).
T1 construct: expressed in transfected cells; host or cells: N2a cells, eGFP co-transfected
Briefly: Ca++ imaging in N2a cells over-expressing TRPV2. The following applies: 5 μM, mouse isoform in N2a cells. In kind it is cell-based. From the text:
Mean±SEM is shown, ≥100 cells per condition. […] Plot generated from averaged peak ΔCa++ concentration of […] per data-point.

T1 sequence (Q9WTR1 whole entry): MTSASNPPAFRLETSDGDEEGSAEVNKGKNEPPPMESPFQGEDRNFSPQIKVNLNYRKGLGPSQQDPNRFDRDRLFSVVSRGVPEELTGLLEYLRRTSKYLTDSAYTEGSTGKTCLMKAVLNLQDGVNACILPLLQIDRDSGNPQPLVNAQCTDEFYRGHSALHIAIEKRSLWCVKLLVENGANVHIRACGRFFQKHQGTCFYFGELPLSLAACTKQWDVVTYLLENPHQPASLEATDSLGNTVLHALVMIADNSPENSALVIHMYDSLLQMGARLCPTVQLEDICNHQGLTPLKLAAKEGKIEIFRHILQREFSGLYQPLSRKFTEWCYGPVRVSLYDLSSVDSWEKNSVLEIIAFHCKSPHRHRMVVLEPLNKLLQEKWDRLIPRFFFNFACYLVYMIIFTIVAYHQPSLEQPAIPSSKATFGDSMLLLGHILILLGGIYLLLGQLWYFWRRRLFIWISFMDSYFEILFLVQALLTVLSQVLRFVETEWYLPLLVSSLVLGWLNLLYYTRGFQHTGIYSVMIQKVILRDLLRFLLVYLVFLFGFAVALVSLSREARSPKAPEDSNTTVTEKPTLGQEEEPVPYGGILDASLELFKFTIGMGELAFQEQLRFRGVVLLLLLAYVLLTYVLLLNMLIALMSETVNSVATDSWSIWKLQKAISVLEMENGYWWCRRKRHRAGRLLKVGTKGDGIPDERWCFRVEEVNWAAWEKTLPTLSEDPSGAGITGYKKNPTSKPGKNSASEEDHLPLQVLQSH

Regarding `CN(CCc1ccc(Nc2nc(-c3ccccc3)cs2)cc1)Cc1ccccc1` [Compound 16-8], the “formalin-evoked pain behavior in the delayed (late, neural) phase” value in data set [1] is “significant attenuation”. Further, in data set [2], the “concentration in fat and pancreas after one hour” value is “above its IC50”; the “compound concentration in liver and kidney” value is given as “micromolar/submicromolar”; the “compound concentration in plasma” value is listed as “virtually undetectable”; the concentration at 1 h is less than 100 nM. Further, in data set [3], the “inhibition of TRPV2” value is “did not inhibit”.

On to `CCN(CCc1ccc(Nc2nc(-c3ccccc3)cs2)cc1)Cc1ccccc1` [Compound 16-19], for which the “formalin-evoked pain behavior in the delayed (late, neural) phase” value in data set [1] was “robust effect”. Besides, in data set [2], the “compound concentration in liver and kidney” value was “micromolar/submicromolar”; the “compound concentration in plasma” value is recorded as “virtually undetectable”; the concentration at 1 h was less than 100 nM. Further, in data set [2] (several organs), the “concentration at the 6 h time-point compared to the 1 h time-point” value is listed as 10-20 fold and the “concentration at the 24 h time-point” value was “lower than at the 6 h but higher than at the 1 h time-point”. In data set [3], the “inhibition of TRPV2” value is given as “did not inhibit”.
